Test results: US20220017516A1, “LOX INHIBITORS” (THE INSTITUTE OF CANCER RESEARCH: ROYAL CANCER HOSPITAL, priority 2018, published 2022)
Like-named read-outs stand apart in the source and are kept apart here.

Tests used:
LOX = biological target: T1, LOX (Mus musculus, UniProt P28301); assay: LOX activity in cysts assay (roGFP2 LOX biosensor in MDCK cysts); type: cell-based; conditions: for inhibition at 10 µM: read-out: Cyst LOX @ 10 uM (% inhibition)
T1 construct: Full length LOX cDNA was then PCR cloned into pEGFP-N1 (Clonetech), or biosensor vector proGFP2—N1; expressed in transfected cells; host or cells: MDCK cells grown as cysts on Matrigel
T1 sequence (P28301 163-411): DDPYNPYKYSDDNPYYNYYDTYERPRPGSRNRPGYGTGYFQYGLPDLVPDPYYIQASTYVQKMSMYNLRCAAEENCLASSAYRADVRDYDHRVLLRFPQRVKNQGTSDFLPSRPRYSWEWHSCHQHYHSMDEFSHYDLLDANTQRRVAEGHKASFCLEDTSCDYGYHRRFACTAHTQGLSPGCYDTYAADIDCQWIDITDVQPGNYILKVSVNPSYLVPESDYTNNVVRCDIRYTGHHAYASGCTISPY
Procedure: All cell lines used in this study were purchased from American Type Culture Collection (ATCC). Mycoplasma contamination was routinely monitored by PCR. Cells used were not found to be Mycoplasma positive. MDCK cell lines were cultured in Dulbecco's Modified Eagle Medium (DMEM) supplemented with 10% fetal bovine serum (FBS) and 1% Penicillin Streptomycin solution (Pen Strep). For GFP constructs transfection in MDCK cells, lipofectamine 3000 was used according to manufactures protocols. Cells were either selected with G418 (Life Technologies) at 5 mg/ml. All cell culture reagents were purchased from Life Technologies.
To produce MDCK cysts, cells were cultured on Matrigel (Corning) with 2% Matrigel supplemented in DMEM with 10% FBS. Cysts were allowed to form for 10 days before subsequent studies.
Mouse LOX cDNA was purchased from OriGene. Full length LOX cDNA was then PCR cloned into pEGFP-N1 (Clonetech), or biosensor vector proGFP2—N1 (Hanson, 2004) using the following primers, […] (forward primer) and […] (reverse primer). For the insertion into pEGFP-N1 or proGFP2—N1, Nhel and Xhol restriction sites were added to forward and reverse primers accordingly. Mutant LOX constructs were made using QuickChange II site-directed mutagenesis kit (Agilent Technologies) following manufacture's protocol using LOX-GFP as template. To generate, roGFP2 versions of LOX mutant constructs, LOX mutant cDNA was transferred from pEGFP-N1 to proGFP2—N1 using Nhel and Xhol.
All photomicrographs were taken with a Leica TCS SP8 X confocal system. For LOX biosensor imaging, live MDCK cysts were used. The oxidised biosensor was excited using a 405 nm laser, while the reduced biosensor was excited with a 488 nm laser. Emission of the biosensor was recorded at 500 nm-530 nm range using sequential scans. Ratio images were generated following a published protocol {Kardash, 2011 #376}. Note, while the published protocol generates YFP/CFP ratio images, we used it to generate Oxidised/Reduced (roGFP2 ratio) ratio images. The roGFP2 ratio at the basal surface of MDCK cysts was used to indicate LOX inhibition. LOX inhibitors were added 30 min prior to imaging.
For clarity, readout for DMSO treated cysts represents 0% inhibition (no inhibition) and readout for BAPN at 1 mM is used as 100% inhibition (full inhibition).

LOXL3 = biological target: T2, LOXL3 (Homo sapiens, UniProt P58215); assay: LOX isoform activity assay (ROS Glo), LOXL3; type: biochemical; conditions: 1 h incubation with enzyme
T2 construct: purchased R&D Systems/Bio-techne
T2 sequence (P58215 26-753): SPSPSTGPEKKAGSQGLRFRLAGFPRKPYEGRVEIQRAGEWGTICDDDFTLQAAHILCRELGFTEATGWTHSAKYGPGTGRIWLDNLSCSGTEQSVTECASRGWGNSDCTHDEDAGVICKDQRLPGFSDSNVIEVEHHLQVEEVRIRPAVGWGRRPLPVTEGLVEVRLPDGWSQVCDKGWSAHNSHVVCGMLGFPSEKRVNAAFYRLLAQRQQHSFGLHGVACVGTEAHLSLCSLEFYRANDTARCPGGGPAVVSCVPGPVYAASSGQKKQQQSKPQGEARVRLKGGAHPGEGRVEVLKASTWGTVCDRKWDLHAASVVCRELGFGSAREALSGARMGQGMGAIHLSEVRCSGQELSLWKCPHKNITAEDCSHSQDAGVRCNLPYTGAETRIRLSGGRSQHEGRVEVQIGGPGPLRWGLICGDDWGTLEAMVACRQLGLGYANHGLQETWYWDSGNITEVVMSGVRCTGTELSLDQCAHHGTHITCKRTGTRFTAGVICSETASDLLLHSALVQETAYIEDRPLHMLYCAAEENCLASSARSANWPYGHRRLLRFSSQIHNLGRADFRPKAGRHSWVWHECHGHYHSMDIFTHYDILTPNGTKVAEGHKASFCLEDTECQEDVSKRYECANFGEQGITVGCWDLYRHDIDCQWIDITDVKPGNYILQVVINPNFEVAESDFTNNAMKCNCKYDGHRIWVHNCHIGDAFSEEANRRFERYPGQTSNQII
Procedure: LOX was extracted from pig skin by previously described methods (Shackleton and Hulmes, 1990). LOXL2 and LOXL3 were obtained from R&D Systems/Bio-techne. The Promega ROS Glo assay kit (G8821) was used to assess enzyme activity. Overall, test compound was added to either 384 well assay plates (Greiner) using a Labcyte Echo™ Acoustic Handler or to 96 well plates for a final assay concentration of 100, 30, 10, 3, 1, 0.3, 0.1, 0.03, 0.01 and 0.003 μM final assay concentration. Enzymes were diluted according to specific pre-determined activity in assay buffer (100 mM CHES, pH 9, 0.05% (w/v) pluronic F-127, 0.5% (w/v) BSA, 1 mM MgCl2, 1 M urea, 100 mM NaCl) and added to the plate. For LOXL2, the mixture was incubated for 20 min, 1 h or 20 h; for LOX and LOXL3, incubation time was 1 h. Cadaverine and H2O2 substrate were then added to each well (final assay concentration 19.56 mM and 25 μM respectively) and the plates were incubated for 1.5 h (for LOX) or 1 h (for LOXL2 and LOXL3) at room temperature. Finally, luciferin detection reagent was added and plates were incubated for 20 min at room temperature, protected from light. Luminescence was measured using a BMG LABTECH PHERAstar FS reader and resulting IC50 values were calculated using GraphPad Prism software.

[1] = LOX, 10 uM, DMSO = 0%, BAPN 1 mM = 100% inhibition, inhibitor added 30 min prior to imaging

SMILES	inhibition at 10 µM (LOX; LOX) [%]	inhibition at 10 µM (LOX; [1]) [%]	IC50 (LOXL3) [nM]	further results
CCOc1ccc(N2C[C@H]3CN(C(=O)NCCS(=O)(=O)CCN)C[C@@H]2C(C)(C)C3)cc1 [Example 38, (1S,5S)—N-(2-((2-aminoethyl)sulfonyl)ethyl)-6-(4-ethoxyphenyl)-9,9-dimethyl-3,6-diazabicyclo[3.2.2]nonane-3-carboxamide]	70			
CCOc1ccc(N2CC3CN(CCS(=O)(=O)CCN)CC3C2)cc1 (centres unmarked) [Example 4, 2-((2-(5-(4-ethoxyphenyl)hexahydropyrolo [3,4-c]pyrrol-2(1H)-yl)ethyl)sulfonyl)ethan-1-amine]		100		
CCOc1ccc(N2C[C@@H]3C[C@H]2CN3C(=O)CS(=O)(=O)CCN)cc1 [Example 8, 2-((2-aminoethyl)-sulfonyl)-1-((1S,4S)-5-(4-ethoxyphenyl)-2,5-diazabicyclo-[2.2.1]heptan-2-yl)-ethan-1-one]			550	inhibition at 2.5 µM (LOX; LOX, 2.5 uM (stated in cell), DMSO = 0%, BAPN 1 mM = 100% inhibition, read-out: Cyst LOX (% inhibition) @ 2.5 uM): 46%; IC50 (LOX; MDCK cysts, read-out: Cyst LOX IC50): 370 nM
CCOc1ccc(N2C[C@H]3CN(C(=O)CS(=O)(=O)CCN)C[C@@H]2C(C)(C)C3)cc1 [Example 7, 2-((2-aminoethyl)sulfonyl)-1-((1S,5S)-6-(4-ethoxyphenyl)-9,9-dimethyl-3,6-diazabicyclo[3.2.2]nonan-3-yl)ethan-1-one]	79			
CCOc1ccc(N2C[C@H]3CN(c4ccc(S(=O)(=O)CCN)cc4)C[C@@H]2C(C)(C)C3)cc1 [Example 33, 2-((4-((1R,5S)-6-(4-ethoxyphenyl)-9,9-dimethyl-3,6-diazabicyclo [3.2.2]nonan-3-yl)phenyl)sulfonyl)ethan-1-amine]		100		
NCCS(=O)(=O)CC(=O)N1CCN(c2ccccc2)CC1 [Example 13, 2-((2-Aminoethyl)-sulfonyl)-1-(4-phenylpiperazin-1-yl)ethan-1-one]			280	
